The source of these data is patent publication US8426587B2, “Haloallylamine inhibitors of SSAO/VAP-1 and uses therefor” (Pharmaxis Ltd., priority 2007, dated 2013).

Where a name gives a salt, the structure may show the parent alone. A value given as a limit tells only on which side of the number the result lay.

What is called IC50 is the concentration at which inhibition is half-maximal. One may read the ED50 as the dose that gives a 50% effect, or the effect in half of the subjects.

One assay deals with T1, Mouse SSAO/VAP-1 (Mus musculus, UniProt O70423).
T1 construct: Adipocytes were used as an SSAO source either as adherent cells or as a homogenate; endogenous in cells; host or cells: 3T3-L1 murine fibroblasts (ATCC) differentiated into adipocytes
T1 sequence (O70423 1-765): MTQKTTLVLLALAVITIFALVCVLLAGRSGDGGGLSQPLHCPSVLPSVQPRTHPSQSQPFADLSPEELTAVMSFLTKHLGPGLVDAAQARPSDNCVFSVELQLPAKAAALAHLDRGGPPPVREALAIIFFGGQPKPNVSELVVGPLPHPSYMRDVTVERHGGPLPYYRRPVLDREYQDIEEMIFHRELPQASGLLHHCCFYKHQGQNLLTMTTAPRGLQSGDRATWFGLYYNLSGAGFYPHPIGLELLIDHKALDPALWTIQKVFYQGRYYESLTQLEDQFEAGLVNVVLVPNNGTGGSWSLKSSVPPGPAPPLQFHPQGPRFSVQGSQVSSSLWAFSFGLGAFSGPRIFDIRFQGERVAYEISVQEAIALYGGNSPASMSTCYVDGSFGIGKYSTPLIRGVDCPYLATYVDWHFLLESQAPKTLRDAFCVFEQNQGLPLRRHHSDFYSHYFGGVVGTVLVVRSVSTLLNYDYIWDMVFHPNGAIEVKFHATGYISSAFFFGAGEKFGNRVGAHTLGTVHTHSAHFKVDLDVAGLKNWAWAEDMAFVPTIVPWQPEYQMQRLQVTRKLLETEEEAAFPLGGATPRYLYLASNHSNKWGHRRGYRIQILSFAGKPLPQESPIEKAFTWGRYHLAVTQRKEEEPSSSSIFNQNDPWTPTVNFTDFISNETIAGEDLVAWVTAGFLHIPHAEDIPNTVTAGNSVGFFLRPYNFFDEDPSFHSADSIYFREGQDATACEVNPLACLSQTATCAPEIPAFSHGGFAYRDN
In words: Inhibition of amine oxidase activity of mouse SSAO/VAP-1 (3T3-L1 adipocytes, Amplex Red). Type of assay: biochemical. The conditions noted are these: 3T3-L1 adipocyte SSAO, 30 min at 37° C. preincubation, 40 μM benzylamine. From the text: 3T3-L1 Murine fibroblasts were purchased from the American Type Culture Collection (ATCC, Rockville, Md.). Dulbecco's Modified Eagle Medium (DMEM) and fetal calf serum (FCS), antibiotics and Amplex® Red were obtained from Invitrogen (Carlsbad, Calif.). Tissue culture plastics and black clear-bottom 96 well plates were from BD Falcon (Bedford, Mass.). Bicinchoninic acid (BCA) reagent was from Pierce (Rockford, Ill.). All other materials were obtained from Sigma (St. Louis, Mo.).
3T3-L1 Fibroblasts were cultured in DMEM supplemented with 10% heat-inactivated FCS, 2 mM L-glutamine, 100 U/L penicillin and 100 μg/L streptomycin at 37° C. in 5% CO2. For differentiation into adipocytes, fibroblasts were cultured in DMEM with FCS for 1 or 2 days postconfluence, after which the cells were cultured for 3 days in DMEM containing 10% FCS, 350 nM insulin, 0.5 mM 3-isobutyl-1-methylxanthine, 250 nM dexamethasone, and 400 nM biotin and for 3 days in DMEM containing 10% FCS and 350 nM insulin. After differentiation, adipocytes were maintained in DMEM supplemented with 10% FCS. Adipocytes were used for experiments 8 to 11 days after the onset of differentiation, and the medium was renewed 2 or 3 days prior to each experiment. For culturing in black clear-bottom 96-well plates, cells were seeded at a 1:1 cell surface ratio, and differentiation was initiated 4 days postseeding. Cells were used between days 6-12 post-differentiation and between passages 7 and 20. Adipocytes were used as an SSAO source either as adherent cells or as a homogenate.
To prepare homogenate, 10 cm dishes of adipocytes were washed with HES buffer (20 mM HEPES, 1 mM EDTA, 250 mM sucrose, pH 7.4) and scraped in HES buffer containing 10 μg/mL leupeptin, 10 μM pepstatin and 1 mM PMSF. Cells were lysed by passage through a 23 G needle followed by passage through a 27 G needle. The lysate was spun at 500 g for 5 min and fat was removed. Protein concentration of the supernatant was measured using a BCA assay according to the manufacturer's instructions. The homogenate was stored at −80° C. until needed.
(§1) To measure the SSAO activity, adipocyte homogenate (0.5 mg/mL) or adipocytes (adhering cells) containing 0.5 mM pargyline, or purified human SSAO was incubated in 0.1 M sodium phosphate buffer pH 7.4 with varying concentrations of test compounds for 30 min at 37° C. The homogenate was then incubated at 37° C. with 60 μM Amplex® Red, 0.75 U/mL HRP and 40 μM benzylamine (mouse SSAO) or 300 μM benzylamine (human SSAO) and the formation of resorufin was measured (excitation range 530-560 nm and emission at 590 nm) every 10 min in either a Tecan Infinite 200 or a BMG plate reader. The IC50 values were estimated using Graphpad Prism software. The IC50 is an estimation of the concentration of the test compound to inhibit the amine oxidase activity of SSAO/VAP-1 by 50%. The IC50 values of certain invention compounds are included in Table 1.
Compound `NC/C=C(/F)COc1ccc(C(=O)NCc2ccccc2)cc1` [(E)-4-(4-Amino-2-fluorobut-2-enyloxy)-N-benzylbenzamide hydrochloride] registered an IC50 of under 1000 nM.
`NC/C=C(\Cl)CCc1ccccc1` [(Z)-3-Chloro-5-phenylpent-2-en-1-amine hydrochloride, reference compound] gave an IC50 of under 10000 nM.

The target of a further assay is T2, Human MAO-B (Homo sapiens, UniProt P27338).
T2 sequence (P27338 1-520): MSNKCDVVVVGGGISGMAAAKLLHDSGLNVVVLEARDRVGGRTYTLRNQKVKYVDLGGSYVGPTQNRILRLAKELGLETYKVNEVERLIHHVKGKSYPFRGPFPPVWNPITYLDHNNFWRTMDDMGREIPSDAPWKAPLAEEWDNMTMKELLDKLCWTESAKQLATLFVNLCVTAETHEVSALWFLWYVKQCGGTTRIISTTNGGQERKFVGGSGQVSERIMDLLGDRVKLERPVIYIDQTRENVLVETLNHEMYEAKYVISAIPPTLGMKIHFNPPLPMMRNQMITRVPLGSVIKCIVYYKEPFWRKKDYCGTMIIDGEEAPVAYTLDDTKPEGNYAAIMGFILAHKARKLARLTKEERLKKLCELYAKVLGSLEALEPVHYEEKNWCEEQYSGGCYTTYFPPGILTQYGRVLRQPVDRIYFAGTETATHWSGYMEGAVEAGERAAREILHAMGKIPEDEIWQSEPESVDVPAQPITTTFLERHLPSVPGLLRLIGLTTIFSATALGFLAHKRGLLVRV
Kind of assay: Inhibition of recombinant MAO-B (Amplex Red). The settings on record: 30 min at 37° C. preincubation, 50 μM benzylamine. Type of assay: biochemical. The procedure: Recombinant MAO-B was incubated in 0.1 M sodium phosphate buffer pH 7.4 with varying concentration of test compounds for 30 min at 37° C. The homogenate/protein was then incubated at 37° C. with […] Amplex® Red, 0.75 U/ml HRP and 40 μM benzylamine (mouse SSAO), 300 μM benzylamine (human SSAO), 100 μM tyramine (MAO-A) or 50 μM benzylamine (MAO-B) and the formation of resorufin was measured (excitation range 530-560 nm and emission at 590 nm) every 5 min in either a Tecan Infinite 200 or a BMG Fluorostar Optima platereader. IC50 were estimated using Graphpad Prism software.
On to `NC/C=C(/F)COc1ccc(C(=O)NCc2ccccc2)cc1` [(E)-4-(4-Amino-2-fluorobut-2-enyloxy)-N-benzylbenzamide hydrochloride], for which the IC50 is under 1000 nM.

In another assay the target is T3, Human SSAO/VAP-1 (Homo sapiens, UniProt Q16853).
T3 sequence (Q16853 1-763): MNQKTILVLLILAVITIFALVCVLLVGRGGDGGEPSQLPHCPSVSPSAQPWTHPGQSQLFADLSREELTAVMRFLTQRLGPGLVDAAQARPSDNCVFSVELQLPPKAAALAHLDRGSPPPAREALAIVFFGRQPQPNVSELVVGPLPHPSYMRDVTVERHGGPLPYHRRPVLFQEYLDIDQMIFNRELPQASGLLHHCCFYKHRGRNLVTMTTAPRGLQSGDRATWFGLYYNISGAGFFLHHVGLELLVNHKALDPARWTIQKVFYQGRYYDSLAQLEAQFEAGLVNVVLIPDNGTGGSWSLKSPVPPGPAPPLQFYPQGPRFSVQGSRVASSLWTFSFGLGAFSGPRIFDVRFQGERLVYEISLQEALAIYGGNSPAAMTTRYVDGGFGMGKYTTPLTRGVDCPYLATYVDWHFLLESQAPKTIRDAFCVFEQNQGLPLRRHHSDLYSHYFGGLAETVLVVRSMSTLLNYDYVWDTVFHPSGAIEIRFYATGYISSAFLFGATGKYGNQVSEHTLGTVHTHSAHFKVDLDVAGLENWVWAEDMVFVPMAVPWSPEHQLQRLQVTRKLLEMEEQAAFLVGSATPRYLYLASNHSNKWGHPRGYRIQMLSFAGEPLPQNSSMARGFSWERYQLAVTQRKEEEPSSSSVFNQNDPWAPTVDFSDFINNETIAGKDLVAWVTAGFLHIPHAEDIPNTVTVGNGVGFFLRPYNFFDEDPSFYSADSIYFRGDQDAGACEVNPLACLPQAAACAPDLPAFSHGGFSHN
In words: Inhibition of amine oxidase activity of purified human SSAO/VAP-1 (Amplex Red). Type of assay: biochemical. The settings on record: purified human SSAO, 30 min at 37° C. preincubation, 300 μM benzylamine. As for the experimental part: as §1
As to `NC/C=C(/F)COc1ccc(C(=O)NCc2ccccc2)cc1` [(E)-4-(4-Amino-2-fluorobut-2-enyloxy)-N-benzylbenzamide hydrochloride], the IC50 was under 1000 nM.
`NC/C=C(\Cl)CCc1ccccc1` [(Z)-3-Chloro-5-phenylpent-2-en-1-amine hydrochloride, reference compound] yielded an IC50 of under 10000 nM.

The next assay deals with T4, SSAO/VAP-1 (Mus musculus, UniProt O70423).
T4 construct: the genital fat was excised and frozen; The tissue was homogenized; from tissue; host or cells: genital fat of BALB/C mice
T4 sequence (O70423 1-765): T1 sequence (O70423 1-765)
In words: In vivo inhibition of SSAO/VAP-1 activity in mouse genital fat. Set-up: species or system BALB/C mice. The conditions noted are these: ip, female BALB/C mice, intraperitoneal, genital fat SSAO activity two hours after administration, read-out: Female Mice ED50 [ip]. As for the experimental part:
In vivo inhibition was assessed in mouse genital fat, a tissue with high SSAO/VAP-1 expression. 10 BALB/C mice (5 males and 5 females) were administered 0 mg/kg, 10 mg/kg, 30 mg/kg or 100 mg/kg SSAO/VAP-1 inhibitor by intraperitoneal injection. Two hours after administration the mice were sacrificed and the genital fat was excised and frozen. The tissue was homogenized in 0.01 M sodium phosphate buffer pH 7.4 (10 mL/g) and used to measure SSAO activity using Amplex® Red. ED50 was estimated Using Graphpad Prism software.
Regarding `CC(C)S(=O)(=O)c1ccc(OC/C(F)=C\CN)cc1.Cl` [(E)-3-Fluoro-4-(4-(isopropylsulfonyl)phenoxy)but-2-en-1-amine hydrochloride], the ED50 was under 150 mg/kg.
The same measure, in the same setting: to `Cl.NC/C=C(/F)COc1ccc(S(=O)(=O)Cc2ccccc2)cc1` [(E)-4-(4-(Benzylsulfonyl)phenoxy)-3-fluorobut-2-en-1-amine hydrochloride] belongs under 300 mg/kg; to `Cl.NC/C=C(/F)COc1ccc(C(=O)NC2CCCC2)cc1` [(E)-4-(4-Amino-2-fluorobut-2-enyloxy)-N-cyclopentylbenzamide hydrochloride], under 50 mg/kg.

Staying with this assay, now noted: ip, male BALB/C mice, intraperitoneal, genital fat SSAO activity two hours after administration, read-out: Male Mice ED50 [ip].
As for `CC(C)S(=O)(=O)c1ccc(OC/C(F)=C\CN)cc1.Cl` [(E)-3-Fluoro-4-(4-(isopropylsulfonyl)phenoxy)but-2-en-1-amine hydrochloride], the ED50 is under 150 mg/kg.
The same measure, in the same setting: to `Cl.NC/C=C(/F)COc1ccc(S(=O)(=O)Cc2ccccc2)cc1` [(E)-4-(4-(Benzylsulfonyl)phenoxy)-3-fluorobut-2-en-1-amine hydrochloride] belongs under 50 mg/kg; to `Cl.NC/C=C(/F)COc1ccc(C(=O)NC2CCCC2)cc1` [(E)-4-(4-Amino-2-fluorobut-2-enyloxy)-N-cyclopentylbenzamide hydrochloride], under 50 mg/kg.

Still in this assay, the particulars now being: ip, read-out: Female Mice ED50 [ip].
As to `C[C@H](NC(=O)c1ccc(OC/C(F)=C\CN)cc1)c1ccccc1.Cl` [S-(E)-4-(4-Amino-2-fluorobut-2-enyloxy)-N-(1-phenylethyl)benzamide hydrochloride], the ED50 is under 50 mg/kg.
Same read-out and setting: to `C[C@@H](NC(=O)c1ccc(OC/C(F)=C\CN)cc1)c1ccccc1.Cl` [R-(E)-4-(4-Amino-2-fluorobut-2-enyloxy)-N-(1-phenylethyl)benzamide hydrochloride] belongs under 150 mg/kg.

Still in this assay, the particulars now being: ip, read-out: Male Mice ED50 [ip].
Consider `C[C@H](NC(=O)c1ccc(OC/C(F)=C\CN)cc1)c1ccccc1.Cl` [S-(E)-4-(4-Amino-2-fluorobut-2-enyloxy)-N-(1-phenylethyl)benzamide hydrochloride], for which the ED50 was under 50 mg/kg.
On the same count and under the same terms, to `C[C@@H](NC(=O)c1ccc(OC/C(F)=C\CN)cc1)c1ccccc1.Cl` [R-(E)-4-(4-Amino-2-fluorobut-2-enyloxy)-N-(1-phenylethyl)benzamide hydrochloride] belongs under 50 mg/kg.
